Experimental data taken from US20250382287A1, “PHARMACEUTICALLY ACCEPTABLE SALT AND CRYSTAL FORM OF NITROGEN-CONTAINING BRIDGE HETEROCYCLIC DERIVATIVE, AND METHOD FOR PREPARING SAME” (JIANGSU HENGRUI PHARMACEUTICALS CO., LTD., priority 2022, published 2025).

Key:
[1] = Long-term/accelerated stability (sealed, 25° C./60% RH and 40° C./75% RH)
[2] = DVS (dynamic vapor sorption) hygroscopicity testing; format: physicochemical; settings: for hygroscopic weight gain under normal storage conditions / hygroscopic weight gain under accelerated experimental conditions / hygroscopic weight gain under extreme conditions: DVS; for hygroscopic weight gain under normal storage conditions: 25° C. and 60% RH; for hygroscopic weight gain under accelerated experimental conditions: 70% RH; for hygroscopic weight gain under extreme conditions: 90% RH; for crystal form re-identification after DVS testing: XRPD after DVS
Description: DVS refers to dynamic vapor sorption: Surface Measurement Systems instrinsic was adopted; the humidity started at 50%, the humidity range investigated was 0%-95%, and the humidity was increased in increments of 10%; the criterion was that each gradient mass change dM/dT is less than 0.002%, TMAX 360 min, two cycles.

[3] = Influencing factor stability (open flasks, light, high temperature, high humidity, 30 days)
[4] = 25° C., 60% RH, sealed, 1 month
[5] = 25° C., 60% RH, sealed, 2 months
[6] = 25° C., 60% RH, sealed, 3 months
[7] = 25° C., 60% RH, sealed, 6 months
[8] = 25° C./60% RH and 40° C./75% RH, 6 months
[9] = 40° C., 75% RH, sealed, 1 month
[10] = 40° C., 75% RH, sealed, 2 months
[11] = 40° C., 75% RH, sealed, 3 months
[12] = 40° C., 75% RH, sealed, 6 months
[13] = Light exposure (4500 Lux), 5 days, open flask
[14] = Light exposure (4500 Lux), 10 days, open flask
[15] = Light exposure (4500 Lux), 30 days, open flask
[16] = light exposure (4500 Lux), 40° C. and 60° C., high humidity RH 75% and 92.5%, 30 days
[17] = Light exposure (4500 Lux), 12 days, open flask

Compound: CCO[C@H]1C[C@H]2CC[C@@](c3ccc(C(=O)O)cc3)(C1)N2Cc1c(OC)cc(C)c2[nH]ccc12.O=C(O)/C=C/C(=O)O [crystal form I of the fumarate, 4-((1S,3S,5R)-3-ethoxy-8-((5-methoxy-7-methyl-1H-indol-4-yl)methyl)-8-azabicyclo[3.2.1]octan-1-yl)benzoic acid-fumarate]
- Purity % [1, 4]: 99.9%
- Salt form [1, 4]: No change
- Purity % [1, 5]: 100.0%
- Salt form [1, 5]: No change
- Purity % [1, 6]: 100.0%
- Salt form [1, 6]: No change
- Purity % [1, 7]: 99.9%
- Salt form [1, 7]: No change
- chemical stability [1, 8]: good
- physical stability [1, 8]: good
- Purity % [1, 9]: 99.9%
- Salt form [1, 9]: No change
- Purity % [1, 10]: 99.9%
- Salt form [1, 10]: No change
- Purity % [1, 11]: 99.9%
- Salt form [1, 11]: No change
- Purity % [1, 12]: 99.8%
- Salt form [1, 12]: No change
- Purity % ([1]; Initial): 100.0%
- Salt form ([1]; Initial): Crystal form I
- hygroscopic weight gain under normal storage conditions [2]: about 0.51%
- hygroscopic weight gain under accelerated experimental conditions [2]: about 0.60%
- hygroscopic weight gain under extreme conditions [2]: about 0.82%
- crystal form re-identification after DVS testing [2]: did not change
- Color and state ([3]; 40° C., 5 days, open flask): White solid
- Purity % ([3]; 40° C., 5 days, open flask): 99.7%
- Salt form ([3]; 40° C., 5 days, open flask): No change
- Color and state ([3]; 40° C., 10 days, open flask): White solid
- Purity % ([3]; 40° C., 10 days, open flask): 99.6%
- Salt form ([3]; 40° C., 10 days, open flask): No change
- Color and state ([3]; 40° C., 30 days, open flask): White solid
- Purity % ([3]; 40° C., 30 days, open flask): 99.3%
- Salt form ([3]; 40° C., 30 days, open flask): No change
- Color and state ([3]; 60° C., 5 days, open flask): White solid
- Purity % ([3]; 60° C., 5 days, open flask): 99.8%
- Salt form ([3]; 60° C., 5 days, open flask): No change
- Color and state ([3]; 60° C., 10 days, open flask): White solid
- Purity % ([3]; 60° C., 10 days, open flask): 99.7%
- Salt form ([3]; 60° C., 10 days, open flask): No change
- Color and state ([3]; 60° C., 30 days, open flask): White solid
- Purity % ([3]; 60° C., 30 days, open flask): 99.5%
- Salt form ([3]; 60° C., 30 days, open flask): No change
- Color and state ([3]; 75% RH, 5 days, open flask): White solid
- Purity % ([3]; 75% RH, 5 days, open flask): 100.0%
- Salt form ([3]; 75% RH, 5 days, open flask): No change
- Color and state ([3]; 75% RH, 10 days, open flask): White solid
- Purity % ([3]; 75% RH, 10 days, open flask): 99.9%
- Salt form ([3]; 75% RH, 10 days, open flask): No change
- Color and state ([3]; 75% RH, 30 days, open flask): White solid
- Purity % ([3]; 75% RH, 30 days, open flask): 100.0%
- Salt form ([3]; 75% RH, 30 days, open flask): No change
- Color and state ([3]; 92.5% RH, 5 days, open flask): White solid
- Purity % ([3]; 92.5% RH, 5 days, open flask): 99.9%
- Salt form ([3]; 92.5% RH, 5 days, open flask): No change
- Color and state ([3]; 92.5% RH, 10 days, open flask): White solid
- Purity % ([3]; 92.5% RH, 10 days, open flask): 99.9%
- Salt form ([3]; 92.5% RH, 10 days, open flask): No change
- Color and state ([3]; 92.5% RH, 30 days, open flask): White solid
- Purity % ([3]; 92.5% RH, 30 days, open flask): 99.9%
- Salt form ([3]; 92.5% RH, 30 days, open flask): No change
- Color and state ([3]; Initial, 0 days): White solid
- Purity % ([3]; Initial, 0 days): 100.0%
- Salt form ([3]; Initial, 0 days): Crystal form I
- Color and state [3, 13]: White solid
- Purity % [3, 13]: 100.0%
- Salt form [3, 13]: No change
- Color and state [3, 14]: White solid
- Purity % [3, 14]: 99.9%
- Salt form [3, 14]: No change
- Color and state [3, 15]: White solid
- Purity % [3, 15]: 99.5%
- Salt form [3, 15]: No change
- chemical stability [3, 16]: good
- physical stability [3, 16]: good

Compound: CCO[C@H]1C[C@H]2CC[C@@](c3ccc(C(=O)O)cc3)(C1)N2Cc1c(OC)cc(C)c2[nH]ccc12.O=P(O)(O)O [crystal form II of the phosphate, 4-((1S,3S,5R)-3-ethoxy-8-((5-methoxy-7-methyl-1H-indol-4-yl)methyl)-8-azabicyclo[3.2.1]octan-1-yl)benzoic acid-phosphate]
- Purity % [1, 4]: 99.6%
- Purity % [1, 5]: 99.4%
- physical stability ([1]; 25° C./60% RH and 40° C./75% RH, 2 months): relatively good
- Purity % [1, 9]: 98.7%
- Purity % [1, 10]: 97.7%
- Purity % ([1]; Initial): 99.9%
- long-term chemical stability ([1]; long-term condition, 2 months): good
- Color and state ([3]; 40° C., 5 days, open flask): White solid
- Salt form ([3]; 40° C., 5 days, open flask): No change
- Color and state ([3]; 40° C., 12 days, open flask): White solid
- Salt form ([3]; 40° C., 12 days, open flask): No change
- Color and state ([3]; 40° C., 30 days, open flask): White solid
- Salt form ([3]; 40° C., 30 days, open flask): No change
- Color and state ([3]; 60° C., 5 days, open flask): White solid
- Salt form ([3]; 60° C., 5 days, open flask): No change
- Color and state ([3]; 60° C., 12 days, open flask): White solid
- Salt form ([3]; 60° C., 12 days, open flask): No change
- Color and state ([3]; 60° C., 30 days, open flask): White solid
- Salt form ([3]; 60° C., 30 days, open flask): No change
- Color and state ([3]; 75% RH, 5 days, open flask): White solid
- Salt form ([3]; 75% RH, 5 days, open flask): No change
- Color and state ([3]; 75% RH, 12 days, open flask): White solid
- Salt form ([3]; 75% RH, 12 days, open flask): No change
- Color and state ([3]; 75% RH, 30 days, open flask): White solid
- Salt form ([3]; 75% RH, 30 days, open flask): No change
- Color and state ([3]; 92.5% RH, 5 days, open flask): White solid
- Salt form ([3]; 92.5% RH, 5 days, open flask): No change
- Color and state ([3]; 92.5% RH, 12 days, open flask): White solid
- Salt form ([3]; 92.5% RH, 12 days, open flask): Changed
- Color and state ([3]; 92.5% RH, 30 days, open flask): White solid
- Salt form ([3]; 92.5% RH, 30 days, open flask): Changed
- Color and state ([3]; Initial, 0 days): White solid
- Salt form ([3]; Initial, 0 days): Crystal form II
- Color and state [3, 13]: White solid
- Salt form [3, 13]: No change
- Color and state [3, 17]: White solid
- Salt form [3, 17]: No change
- Color and state [3, 15]: White solid
- Salt form [3, 15]: No change
- chemical stability under high humidity conditions ([3]; high humidity conditions only, 30 days): good
- physical stability under high temperature, light exposure, and high humidity (75% RH) conditions ([3]; high temperature, light exposure, high humidity 75% RH only): good

Compound: CCO[C@H]1C[C@H]2CC[C@@](c3ccc(C(=O)O)cc3)(C1)N2Cc1c(OC)cc(C)c2[nH]ccc12.O=P(O)(O)O [crystal form III of the phosphate, 4-((1S,3S,5R)-3-ethoxy-8-((5-methoxy-7-methyl-1H-indol-4-yl)methyl)-8-azabicyclo[3.2.1]octan-1-yl)benzoic acid-phosphate]
- hygroscopic weight gain under normal storage conditions [2]: about 4.7700%
- hygroscopic weight gain under accelerated experimental conditions [2]: about 5.440%
- hygroscopic weight gain under extreme conditions [2]: about 7.20%
- crystal form re-identification after DVS testing [2]: did not change

Compound: CCO[C@H]1C[C@H]2CC[C@@](c3ccc(C(=O)O)cc3)(C1)N2Cc1c(OC)cc(C)c2[nH]ccc12.Cl [crystal form V of the hydrochloride, 4-((1S,3S,5R)-3-ethoxy-8-((5-methoxy-7-methyl-1H-indol-4-yl)methyl)-8-azabicyclo[3.2.1]octan-1-yl)benzoic acid-hydrochloride]
- hygroscopic weight gain under normal storage conditions [2]: about 6.36%
- hygroscopic weight gain under accelerated experimental conditions [2]: about 7.28%
- hygroscopic weight gain under extreme conditions [2]: about 8.32%
- crystal form re-identification after DVS testing [2]: did not change

Compound: CCO[C@H]1C[C@H]2CC[C@@](c3ccc(C(=O)O)cc3)(C1)N2Cc1c(OC)cc(C)c2[nH]ccc12.Cl [crystal form VI of the hydrochloride, 4-((1S,3S,5R)-3-ethoxy-8-((5-methoxy-7-methyl-1H-indol-4-yl)methyl)-8-azabicyclo[3.2.1]octan-1-yl)benzoic acid-hydrochloride]
- hygroscopic weight gain under normal storage conditions [2]: about 3.69%
- hygroscopic weight gain under accelerated experimental conditions [2]: about 4.12%
- hygroscopic weight gain under extreme conditions [2]: about 5.73%
- crystal form re-identification after DVS testing [2]: did not change
